Data on 17 compounds can be found in patent publication US5049559A, “Thieno-triazolo-diazepine derivatives useful as anti-ischemic agents” (priority 1989, dated 1991).

For assay [1], the system named is platelet aggregation induced by PAF. The experiment in a line: Inhibition of platelet aggregation induced by PAF. To be noted: Oryctolagus cuniculus, male New Zealand rabbits, Table I. It is filed as cell-based. On the procedure: 1) Inhibition of platelet aggregation induced by PAF
This experimentation was conducted according to the method of R. KINLOUGH. RATHBONE, J. P. CAZENAVE, M. PACKHAM and F. MUSTARD, Lab. Invest. 48, 98, 1980. In this test, New Zealand rabbits were used (male New Zealand rabbits of an average weight of 5 kg).
The determinations are made on a chrono-log Coultronics aggregometer, at […] coupled with a graphic recorder; the results of these determinations (in molecular concentration) are reported on the table I on the central column.

Assay [2] can be described thus: Global ischemia on gerbils. It is filed as in vivo. The settings on record: Meriones unguiculatus, 168 h, carotides clamped 10 minutes, hippocampes one week later, 3H-PK 11195, percentage of protection compared to control. On the procedure:
3) Global ischemia on gerbils For this test, males gerbils were anaesthetized with brietal at the doses of 35 mg/kg IP; thereafter, both carotides were clamped for 10 minutes, then the clamping was released. Treated animals received each 10 mg/kg of the compounds of one of the examples. One week later, the animals were killed and both hippocampes were taken, weighed and frozen at -80° C. After crushing with 1 ml of TRIS-HCl pH 7.4 for 30 seconds, aliquots of each 50 μl of this preparation were incubed in each 1 ml of TRIS-HCl buffer containing ^3 H-PK 11195 at 2 nM (90 Ci/mmole, NENE, Germany) for 1 hour at 25° C. For each preparation, 3 determinations were made. The density of omega 3 sites (marked by the specific ^3 H-PK 11195 marker) are expressed in f-moles of PK 11195/mg of fresh tissues and converted in percentage of protection compared to control.

Another assay addresses benzodiazepine receptors. The experiment in a line: Inhibition of the binding to benzodiazepine receptors. To be noted: rat brains, 1 hour 30 minutes at 4° C., tracers 3H-RO-15-1788 and 3H-RO-5-4864, Table I, read-out: BDZ receptors. From the text:
2) Inhibition of the binding to benzodiazepine receptors
The interest of the previous experimentation depends on the results obtained in this experimentation: as a compound of the invention has a benzodiazepine like structure, it is important to check whether the specific benzodiazepine activity would not appear at the dose where platelet aggregation was inhibited.
Therefore, this experimentation has been conducted according to the method of MOHLER H. and RICHARD J. G. Agonist and antagonist benzodiazepine receptor interaction in vitro, Nature, vol. 294, 763-765, 1981.
This experimentation was conducted on rat brains incubated 1 hour 30 minutes at 4° C. using ^3 H-RO-15-1788 and ^3 H-RO-5-4864 (NEN) as tracers and […] and RO-5-4864 as reference antagonists.
The results in molecular concentration are reported in the table I, on the right hand column.

`Cc1nnc2n1-c1sc3c(c1C(c1ccccc1Cl)=NC2)CCN(C(=O)CSC(C)C)C3` [Example 1, 6-(2-chlorophenyl)-9-(isopropylthiomethylcarbonyl)-7,8,9,10-tetrahydro-1-methyl-4H-pyrido [4',3':4,5] thieno [3,2-f] 1,2,4-triazolo [4,3-a] 1,4-diazepine]: the IC50 in assay [1] amounted to 25.3 nM; on benzodiazepine receptors, 6700 nM. The compound also had an inhibition in vivo at 10 mg/kg in assay [2] of 54.2%.
The corresponding values for `Cc1nnc2n1-c1sc3c(c1C(c1ccccc1Cl)=NC2)CCN(C(=S)CSC(C)C)C3` [Example 2, 6-(2-chlorophenyl)-9-(isopropylthiomethyl-thiocarbonyl)-7,8,9,10-tetrahydro-1-methyl-4H-pyrido [4',3':4,5] thieno [3,2-f] 1,2,4-triazolo [4,3-a] 1,4-diazepine] are 28.1 nM, 48200 nM and 36.3%.
The corresponding values for `Cc1nnc2n1-c1sc3c(c1C(c1ccccc1Cl)=NC2)CCN(C(=O)CSC(C)(C)C)C3` [Example 3, 6-(2-chlorophenyl)-9-(t.butylthiomethyl-carbonyl)-7,8,9, 10-tetrahydro-1-methyl-4H-pyrido [4',3':4,5] thieno [3,2-f] 1,2,4-triazolo[4,3-a] 1,4-diazepine] are 16.8 nM, 2300 nM and 34.3%.
In the case of `Cc1nnc2n1-c1sc3c(c1C(c1ccccc1Cl)=NC2)CCN(C(=S)CSC(C)(C)C)C3` [Example 4, 6-(2-chlorophenyl)-9-(t.butylthiomethyl-thiocarbonyl)-7,8,9, 10-tetrahydro-1-methyl-4H-pyrido [4',3':4,5] thieno [3,2-f] 1,2,4-triazolo[4,3-a] 1,4-diazepine], the IC50 was found to be 497 nM in assay [1] and 1550 nM on benzodiazepine receptors. Moreover, 10 mg/kg produced 38.1% inhibition in vivo in assay [2].
The corresponding values for `CCCCCCCCCCCCCCCCSCC(=O)N1CCc2c(sc3c2C(c2ccccc2Cl)=NCc2nnc(C)n2-3)C1` [Example 5, 6-(2-chlorophenyl)-9-(hexadecylthiomethyl-carbonyl)-7,8,9, 10-tetrahydro-1-methyl-4H-pyrido [4',3':4,5] thieno [3,2-f] 1,2,4-triazolo[4,3-a] 1,4-diazepine] are 7.43 nM, 121 nM and 29.4%.
Regarding `CCCCCCCCCCCCCCCCSCC(=S)N1CCc2c(sc3c2C(c2ccccc2Cl)=NCc2nnc(C)n2-3)C1` [Example 6, 6-(2-chlorophenyl)-9-(hexadecylthiomethyl-thiocarbonyl); 7,8,9, 10-tetrahydro-1-methyl-4H-pyrido [4',3':4,5] thieno [3,2-f] 1,2,4-triazolo[4,3-a] 1,4-diazepine], the IC50 in assay [1] was 9.46 nM; on benzodiazepine receptors, 910 nM. The compound also returned an inhibition in vivo at 10 mg/kg in assay [2] of 27.8%.
The corresponding values for `Cc1nnc2n1-c1sc3c(c1C(c1ccccc1Cl)=NC2)CCN(C(=O)CSc1ccccc1)C3` [Example 7, 6-(2-chlorophenyl)-9-(phenyl-thiomethyl-carbonyl)-7,8,9, 10-tetrahydro-1-methyl-4H-pyrido [4',3':4,5] thieno [3,2-f] 1,2,4-triazolo[4,3-a] 1,4-diazepine] are 511 nM, 2100 nM and 14.8%.
On the same counts, the results for `Cc1nnc2n1-c1sc3c(c1C(c1ccccc1Cl)=NC2)CCN(C(=S)CSc1ccccc1)C3` [Example 8, 6-(2-chorophenyl)-9-(phenyl-thiomethyl-thiocarbonyl)-7,8,9, 10-tetrahydro-1-methyl-4H-pyrido [4',3':4,5] thieno [3,2-f] 1,2,4-triazolo[4,3-a] 1,4-diazepine] are 10.5 nM, 7330 nM and 26.2%.
For `COc1ccc(SCC(=O)N2CCc3c(sc4c3C(c3ccccc3Cl)=NCc3nnc(C)n3-4)C2)cc1` [Example 9, 6-(2-chlorophenyl)-9-(4-methoxyphenylthiomethyl-carbonyl)-7,8,9, 10-tetrahydro-1-methyl-4H-pyrido [4',3':4,5] thieno [3,2-f] 1,2,4-triazolo[4,3-a] 1,4-diazepine], the results for the IC50 (in assay [1]; on benzodiazepine receptors) were 33.7 nM and 2700 nM, respectively. In assay [2], this compound returned an inhibition in vivo at 10 mg/kg of 31.2%.
On the same counts, the results for `COc1ccc(SCC(=S)N2CCc3c(sc4c3C(c3ccccc3Cl)=NCc3nnc(C)n3-4)C2)cc1` [Example 10, 6-(2-chlorophenyl)-9-(4-methoxyphenylthiomethyl-thiocarbonyl)-7,8,9, 10-tetrahydro-1-methyl-4H-pyrido [4',3':4,5] thieno [3,2-f] 1,2,4-triazolo[4,3-a] 1,4-diazepine] are 171 nM, 66000 nM and 10.3%.
On the same counts, the results for `COc1ccc(SCC(=O)N2CCc3c(sc4c3C(c3ccccc3Cl)=NCc3nnc(C)n3-4)C2)cc1OC` [Example 11, 6-(2-chlorophenyl)-9-(3,4-dimethoxyphenylthiomethyl-carbonyl)-7,8,9, 10-tetrahydro-1-methyl-4H-pyrido [4',3':4,5] thieno [3,2-f] 1,2,4-triazolo[4,3-a] 1,4-diazepine] are 26.4 nM, 1400 nM and 46.5%.
On the same counts, the results for `COc1ccc(SCC(=S)N2CCc3c(sc4c3C(c3ccccc3Cl)=NCc3nnc(C)n3-4)C2)cc1OC` [Example 12, 6-(2-chlorophenyl)-9-(3,4-dimethoxyphenylthiomethyl-thiocarbonyl)-7,8,9, 10-tetrahydro-1-methyl-4H-pyrido [4',3':4,5] thieno [3,2-f] 1,2,4-triazolo [4,3-a] 1,4-diazepine] are 31.4 nM, 870 nM and 34.1%.
`COc1cc(SCC(=O)N2CCc3c(sc4c3C(c3ccccc3Cl)=NCc3nnc(C)n3-4)C2)cc(OC)c1OC` [Example 13, 6-(2-chlorophenyl)-9-(3,4,5-trimethoxyphenylthiomethylcarbonyl)-7,8,9, 10-tetrahydro-1-methyl-4H-pyrido [4',3':4,5] thieno [3,2-f] 1,2,4-triazolo[4,3-a] 1,4-diazepine]: the IC50 in assay [1] came to 18.5 nM; on benzodiazepine receptors it was 55000 nM. Moreover, in assay [2], the inhibition in vivo at 10 mg/kg is 32.1%.
The corresponding values for `COc1cc(SCC(=S)N2CCc3c(sc4c3C(c3ccccc3Cl)=NCc3nnc(C)n3-4)C2)cc(OC)c1OC` [Example 14, 6-(2-chlorophenyl)-9-(3,4,5-trimethoxyphenylthiomethyl-thiocarbonyl)-7,8,9, 10-tetrahydro-1-methyl-4H-pyrido [4',3':4,5] thieno [3,2-f] 1,2,4-triazolo [4,3-a] 1,4-diazepine] are 9.22 nM, 1500 nM and 19.7%.
On the same counts, the results for `COc1ccc(SCC(=O)N2CCc3c(sc4c3C(c3ccccc3Cl)=NCc3nnc(C)n3-4)C2)c(OC)c1OC` [Example 15, 6-(2-chlorophenyl)-9-(2,3,4-trimethoxyphenylthiomethyl-carbonyl)-7,8,9, 10-tetrahydro-1-methyl-4H-pyrido [4',3':4,5] thieno [3,2-f] 1,2,4-triazolo[4,3-a] 1,4-diazepine] are 120 nM, 3600 nM and 35.8%.
On the same counts, the results for `COc1ccc(SCC(=S)N2CCc3c(sc4c3C(c3ccccc3Cl)=NCc3nnc(C)n3-4)C2)c(OC)c1OC` [Example 16, 6-(2-chlorophenyl)-9-(2,3,4-trimethoxyphenylthiomethylthiocarbonyl)-7,8,9, 10-tetrahydro-1-methyl-4H-pyrido [4',3':4,5] thieno [3,2-f] 1,2,4-triazolo [4,3-a] 1,4-diazepine] are 53.5 nM, 600 nM and 29.3%.
As for `Cc1nnc2n1-c1sc3c(c1C(c1ccccc1Cl)=NC2)CCN(C(=O)CSc1ccc(C(C)(C)C)cc1)C3` [Example 17, 6-(2-chlorophenyl)-9-(4-t.butylphenylthiomethyl-carbonyl)-7,8,9, 10-tetrahydro-1-methyl-4H-pyrido [4',3':4,5] thieno [3,2-f] 1,2,4-triazolo[4,3-a] 1,4-diazepine], the IC50 worked out at 8.75 nM in assay [1] and 4700 nM on benzodiazepine receptors. Further, in assay [2], at 10 mg/kg the inhibition in vivo was 11.1%.

Usually inhibition in vivo stands for how much of the control response was suppressed. Lower therefore signals a weak effect.
